{"source": "patent US7829589B2", "about": "“Sulfonamide compounds and uses thereof” (Elixir Pharmaceuticals, Inc., priority 2005, dated 2010)", "data": [{"target": "GHS-R (Homo sapiens, UniProt Q92847)", "sequence (Q92847 whole entry, species assumed)": "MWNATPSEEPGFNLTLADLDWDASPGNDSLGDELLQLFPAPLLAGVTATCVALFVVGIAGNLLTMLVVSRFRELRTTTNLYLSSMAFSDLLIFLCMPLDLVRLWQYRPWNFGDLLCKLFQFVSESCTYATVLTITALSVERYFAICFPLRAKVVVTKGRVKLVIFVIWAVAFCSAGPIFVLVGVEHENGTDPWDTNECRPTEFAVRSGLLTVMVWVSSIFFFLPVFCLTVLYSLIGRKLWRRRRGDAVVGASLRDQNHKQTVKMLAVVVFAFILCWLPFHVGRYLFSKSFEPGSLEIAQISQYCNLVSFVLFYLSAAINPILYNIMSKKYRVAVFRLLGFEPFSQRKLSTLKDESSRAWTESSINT", "experiment": "GHS-R antagonist activity (Ki) in a cell based assay", "method_in_brief": "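Transfected COS-7 cells were labelled 24 h with [^3H]-myo-inositol and preincubated 30 min at 37 °C in HEPES buffer pH 7.4 with 10 mM LiCl, optionally with 1 U/ml adenosine deaminase. Compound was applied for 45 min at 37 °C. [^3H]-inositol phosphates were extracted with perchloric acid and isolated by anion-exchange resin.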", "units": {"Ki": "µM"}, "values": [{"smiles": "CCN(CC)CCS(=O)(=O)N[C@H](CCc1ccccc1)c1nc(-c2ccc(C)cc2)no1", "note": "[Compound 86, 2-Diethylamino-ethanesulfonic acid [(R)-3-phenyl-1-(3-p-tolyl-[1,2,4]oxadiazol-5-yl)-propyl]-amide]", "Ki": "0.1 to 0.5"}, {"smiles": "CCN(CC)CCS(=O)(=O)N[C@H](CCc1ccccc1)c1nc(Cc2ccccc2C)no1", "note": "[Compound 87, 2-Diethylamino-ethanesulfonic acid {(R)-1-[3-(2-methyl-benzyl)-[1,2,4]oxadiazol-5-yl]-3-phenyl-propyl}-amide]", "Ki": "0.1 to 0.5"}, {"smiles": "CCN(CC)CCS(=O)(=O)N[C@H](CCc1ccccc1)c1nc(-c2ccc(OC)cc2)no1", "note": "[Compound 88, 2-Diethylamino-ethanesulfonic acid {(R)-1-[3-(4-methoxy-phenyl)-[1,2,4]oxadiazol-5-yl]-3-phenyl-propyl}-amide]", "Ki": "≥ 1"}, {"smiles": "CCN(CC)CCS(=O)(=O)N[C@H](CCc1ccccc1)c1nc(-c2ccc(F)cc2)no1", "note": "[Compound 89, 2-Diethylamino-ethanesulfonic acid {(R)-1-[3-(4-fluoro-phenyl)-[1,2,4]oxadiazol-5-yl]-3-phenyl-propyl}-amide]", "Ki": "< 0.1"}, {"smiles": "CCN(CC)CCS(=O)(=O)N[C@H](CCc1ccccc1)c1nc(Cc2c(Cl)cccc2Cl)no1", "note": "[Compound 90, 2-Diethylamino-ethanesulfonic acid {(R)-1-[3-(2,6-dichloro-benzyl)-[1,2,4]oxadiazol-5-yl]-3-phenyl-propyl}-amide]", "Ki": "< 0.1"}, {"smiles": "CCN(CC)CCS(=O)(=O)N[C@H](CCc1ccccc1)c1nc(Cc2ccccc2F)no1", "note": "[Compound 91, 2-Diethylamino-ethanesulfonic acid {(R)-1-[3-(2-fluoro-benzyl)-[1,2,4]oxadiazol-5-yl]-3-phenyl-propyl}-amide]", "Ki": "0.1 to 0.5"}, {"smiles": "CCN(CC)CCS(=O)(=O)N[C@H](CCc1ccccc1)c1nc(Cc2cccc(Br)c2)no1", "note": "[Compound 92, 2-Diethylamino-ethanesulfonic acid {(R)-1-[3-(3-bromo-benzyl)-[1,2,4]oxadiazol-5-yl]-3-phenyl-propyl}-amide]", "Ki": "< 0.1"}, {"smiles": "CCN(CC)CCS(=O)(=O)N[C@H](CCc1ccccc1)c1nc(Cc2ccccc2Br)no1", "note": "[Compound 93, 2-Diethylamino-ethanesulfonic acid {(R)-1-[3-(2-bromo-benzyl)-[1,2,4]oxadiazol-5-yl]-3-phenyl-propyl}-amide]", "Ki": "< 0.1"}, {"smiles": "CCN(CC)CCCS(=O)(=O)N[C@@H](Cc1ccccc1)c1nc(-c2ccc(OC)cc2)n[nH]1", "note": "[Compound 95, 3-Diethylamino-propane-1-sulfonic acid {(S)-1-[5-(4-methoxy-phenyl)-2H-[1,2,4]triazol-3-yl]-2-phenyl-ethyl}-amide]", "Ki": "< 0.1"}, {"smiles": "CCN(CC)CCCS(=O)(=O)N[C@H](CCc1ccccc1)c1nc(-c2ccc(F)cc2F)n[nH]1", "note": "[Compound 96, 3-Diethylamino-propane-1-sulfonic acid {(R)-1-[5-(2,4-difluoro-phenyl)-2H-[1,2,4]triazol-3-yl]-3-phenyl-propyl}-amide]", "Ki": "< 0.1"}, {"smiles": "CCN(CC)CCCS(=O)(=O)N[C@H](CCc1ccccc1)c1nc(CCc2ccccc2)no1", "note": "[Compound 97, 3-Diethylamino-propane-1-sulfonic acid [(R)-1-(3-phenethyl-[1,2,4]oxadiazol-5-yl)-3-phenyl-propyl]-amide]", "Ki": "< 0.1"}, {"smiles": "CCN(CC)CCCS(=O)(=O)N[C@H](CCC(N)=O)c1nc(Cc2ccc(Br)cc2)no1", "note": "[Compound 98, (R)-4-[3-(4-Bromo-benzyl)-[1,2,4]oxadiazol-5-yl]-4-(3-diethylamino-propane-1-sulfonylamino)-butyramide]", "Ki": "0.1 to 0.5"}, {"smiles": "CCN(CC)CCCS(=O)(=O)N[C@H](CCc1ccccc1)c1nc(COc2ccccc2)no1", "note": "[Compound 99, 3-Diethylamino-propane-1-sulfonic acid [(R)-1-(3-phenoxymethyl-[1,2,4]oxadiazol-5-yl)-3-phenyl-propyl]-amide]", "Ki": "< 0.1"}, {"smiles": "CCN(CC)CCCS(=O)(=O)N[C@H](CCc1ccccc1)c1nc(Cc2ccccc2OC)no1", "note": "[Compound 100, 3-Diethylamino-propane-1-sulfonic acid {(R)-1-[3-(2-methoxy-benzyl)-[1,2,4]oxadiazol-5-yl]-3-phenyl-propyl}-amide]", "Ki": "< 0.1"}, {"smiles": "CCN(CC)CCCS(=O)(=O)N[C@H](CCc1ccccc1)c1nc(CCc2ccccc2Cl)no1", "note": "[Compound 101, 3-Diethylamino-propane-1-sulfonic acid ((R)-1-{3-[2-(2-chloro-phenyl)-ethyl]-[1,2,4]oxadiazol-5-yl}-3-phenyl-propyl)-amide]", "Ki": "0.1 to 0.5"}, {"smiles": "CCN(CC)CCCS(=O)(=O)N[C@H](CC(N)=O)c1nc(Cc2ccc(Br)cc2)no1", "note": "[Compound 102, (R)-3-[3-(4-Bromo-benzyl)-[1,2,4]oxadiazol-5-yl]-3-(3-diethylamino-propane-1-sulfonylamino)-propionamide]", "Ki": "0.1 to 0.5"}, {"smiles": "CCN(CC)CCCS(=O)(=O)N[C@H](CCc1ccccc1)c1nc(-c2ccccc2C)n[nH]1", "note": "[Compound 104, 3-Diethylamino-propane-1-sulfonic acid [(R)-3-phenyl-1-(5-o-tolyl-2H-[1,2,4]triazol-3-yl)-propyl]-amide]", "Ki": "< 0.1"}, {"smiles": "CCN(CC)CCCS(=O)(=O)N[C@H](CCc1ccccc1)c1nc(-c2ccc(F)cc2)n[nH]1", "note": "[Compound 105, 3-Diethylamino-propane-1-sulfonic acid {(R)-1-[5-(4-fluoro-phenyl)-2H-[1,2,4]triazol-3-yl]-3-phenyl-propyl}-amide]", "Ki": "< 0.1"}, {"smiles": "CCN(CC)CCCS(=O)(=O)N[C@H](CCc1ccccc1)c1nc(-c2ccc(OC(F)(F)F)cc2)n[nH]1", "note": "[Compound 106, 3-Diethylamino-propane-1-sulfonic acid {(R)-3-phenyl-1-[5-(4-trifluoromethoxy-phenyl)-2H-[1,2,4]triazol-3-yl]-propyl}-amide]", "Ki": "< 0.1"}, {"smiles": "CCN(CC)CCCS(=O)(=O)N[C@H](CCc1ccccc1)c1nc(Cc2ccc(OC)cc2)n[nH]1", "note": "[Compound 107, 3-Diethylamino-propane-1-sulfonic acid {(R)-1-[5-(4-methoxy-benzyl)-2H-[1,2,4]triazol-3-yl]-3-phenyl-propyl}-amide]", "Ki": "0.1 to 0.5"}, {"smiles": "CCN(CC)CCCS(=O)(=O)N[C@H](CCc1ccccc1)c1nc(-c2ccc(C)cc2)n[nH]1", "note": "[Compound 108, 3-Diethylamino-propane-1-sulfonic acid [(R)-3-phenyl-1-(5-p-tolyl-2H-[1,2,4]triazol-3-yl)-propyl]-amide]", "Ki": "0.1 to 0.5"}, {"smiles": "CCN(CC)CCCS(=O)(=O)N[C@H](CCc1ccccc1)c1nc(Cc2cccc(OC)c2)no1", "note": "[Compound 109, 3-Diethylamino-propane-1-sulfonic acid {(R)-1-[3-(3-methoxy-benzyl)-[1,2,4]oxadiazol-5-yl]-3-phenyl-propyl}-amide]", "Ki": "< 0.1"}, {"smiles": "CCN(CC)CCCS(=O)(=O)N[C@H](CCc1ccccc1)c1nc(-c2ccc(N(C)C)cc2)n[nH]1", "note": "[Compound 110, 3-Diethylamino-propane-1-sulfonic acid {(R)-1-[5-(4-dimethylamino-phenyl)-2H-[1,2,4]triazol-3-yl]-3-phenyl-propyl}-amide]", "Ki": "≥ 1"}, {"smiles": "CCN(CC)CCCS(=O)(=O)N[C@H](CCc1ccccc1)c1nc(Cc2ccc(OC)cc2)no1", "note": "[Compound 111, 3-Diethylamino-propane-1-sulfonic acid {(R)-1-[3-(4-methoxy-benzyl)-[1,2,4]oxadiazol-5-yl]-3-phenyl-propyl}-amide]", "Ki": "< 0.1"}, {"smiles": "CCN(CC)CCCS(=O)(=O)N[C@H](CCc1ccccc1)c1nc(Cc2ccccn2)no1", "note": "[Compound 112, 3-Diethylamino-propane-1-sulfonic acid [(R)-3-phenyl-1-(3-pyridin-2-ylmethyl-[1,2,4]oxadiazol-5-yl)-propyl]-amide]", "Ki": "0.1 to 0.5"}, {"smiles": "CCN(CC)CCCS(=O)(=O)N[C@H](CCc1ccccc1)c1nc(CCc2ccc(Br)cc2)no1", "note": "[Compound 113, 3-Diethylamino-propane-1-sulfonic acid ((R)-1-{3-[2-(4-bromo-phenyl)-ethyl]-[1,2,4]oxadiazol-5-yl}-3-phenyl-propyl)-amide]", "Ki": "< 0.1"}, {"smiles": "CCN(CC)CCCS(=O)(=O)N[C@H](CCc1ccccc1)c1nc(Cc2ccccc2Cl)no1", "note": "[Compound 114, 3-Diethylamino-propane-1-sulfonic acid {(R)-1-[3-(2-chloro-benzyl)-[1,2,4]oxadiazol-5-yl]-3-phenyl-propy}-amide]", "Ki": "< 0.1"}, {"smiles": "CCN(CC)CCCS(=O)(=O)N[C@H](CCc1ccccc1)c1nc(-c2ccc(OC)cc2F)n[nH]1", "note": "[Compound 115, 3-Diethylamino-propane-1-sulfonic acid {(R)-1-[5-(2-fluoro-4-methoxy-phenyl)-2H-[1,2,4]triazol-3-yl]-3-phenyl-propyl}-amide]", "Ki": "< 0.1"}, {"smiles": "CCN(CC)CCCS(=O)(=O)N[C@H](CCc1ccccc1)c1nc(Cc2ccccc2)no1", "note": "[Compound 116, 3-Diethylamino-propane-1-sulfonic acid [(R)-1-(3-benzyl-[1,2,4]oxadiazol-5-yl)-3-phenyl-propyl]-amide]", "Ki": "0.1 to 0.5"}, {"smiles": "CCN(CC)CCCS(=O)(=O)N[C@H](CCc1ccccc1)c1nc(Cc2ccc(C(F)(F)F)cc2)no1", "note": "[Compound 117, 3-Diethylamino-propane-1-sulfonic acid {(R)-3-phenyl-1-[3-(4-trifluoromethyl-benzyl)-[1,2,4]oxadiazol-5-yl]-propyl}-amide]", "Ki": "< 0.1"}, {"smiles": "CCN(CC)CCCS(=O)(=O)N[C@H](CCc1ccccc1)c1nc(-c2cccc3[nH]ccc23)n[nH]1", "note": "[Compound 118, 3-Diethylamino-propane-1-sulfonic acid {(R)-1-[5-(1H-indol-4-yl)-2H-[1,2,4]triazol-3-yl]-3-phenyl-propyl}-amide]", "Ki": "< 0.1"}, {"smiles": "CCN(CC)CCCS(=O)(=O)N[C@H](Cc1ccccc1)c1nc(-c2ccc(OC)cc2)n[nH]1", "note": "[Compound 119, 3-Diethylamino-propane-1-sulfonic acid {(R)-1-[5-(4-methoxy-phenyl)-2H-[1,2,4]triazol-3-yl]-2-phenyl-ethyl}-amide]", "Ki": "0.1 to 0.5"}, {"smiles": "CCN(CC)CCCS(=O)(=O)N[C@H](CCc1ccccc1)c1nc(-c2ccc(O)cc2)n[nH]1", "note": "[Compound 120, 3-Diethylamino-propane-1-sulfonic acid {(R)-1-[5-(4-hydroxy-phenyl)-2H-[1,2,4]triazol-3-yl]-3-phenyl-propyl}-amide]", "Ki": "< 0.1"}]}]}
